{"source": "patent US11839651B2", "about": "“Immunogenic compositions and uses thereof” (INSTITUTE FOR RESEARCH IN BIO-MEDICINE, priority 2015, dated 2023)", "tested_on": "Tfh cells (via P2X7)", "experiment": "Epithelial permeability to ATP: Tfh cell recovery in Peyer's patches after daily gavage", "assay_type": "in vivo", "settings": "wild type mice, two weeks after treatment", "text": "In order to assess epithelial permeability to ATP in the small intestine, mice were gavaged daily with ATPγS (a non-hydrolysable analogue of ATP). As Tfh cells are sensitive to extracellular ATP via P2X7 the inventors analysed Tfh cell recovery in Peyer's patches two weeks after treatment.", "data": [{"smiles": "Nc1ncnc2c1ncn2[C@@H]1O[C@H](COP(=O)(O)OP(=O)(O)OP(O)(O)=S)[C@@H](O)[C@H]1O", "note": "[ATPγS]", "values": [{"measurement": "Tfh cells in Peyer's patches", "result": "significant reduction"}]}]}
